Columns and labels:
[1] = system: BT474 and HN5 tumor cell lines; experiment: Methylene blue growth inhibition assay (cellular Method A); assay type: cell-based, Human; conditions: Homo sapiens, BT-474, 72 h, 3 days, read-out: Activity (Method): growth inhibition IC50 class
Procedure: Human breast (BT474) and head and neck (HN5) were cultured in low glucose DMEM (Life Technologies 12320-032) containing 10% fetal bovine serum (FBS). Human colon tumor cells (Colo205) were cultured in DMEM (Invitrogen, 10564) containing 10% FBS. The SV40 transformed human mammary epithelial cell line HB4a was transfected with either human H-ras cDNA (HB4a r4.2) or the human c-ErbB2 cDNA (HB4a c5.2). The HB4a clones were cultured in RPMI containing 10% FBS, insulin (5 g/mL), hydrocortisone (5 g/mL), supplemented with the selection agent hygromycin B (50 g/mL). All lines were grown in a humidified incubator at 37° C. in 95% air, 5% CO2. Cells were harvested using trypsin/EDTA, counted using a haemocytometer, and plated in 100 microliters of the appropriate media, at the following densities, in a 96-well tissue culture plate (Falcon 3075): BT474 10,000 cells/well, HN5 3,000 cells/well. The next day, compounds were diluted in DMEM containing […] gentamicin, at twice the final required concentration, from 10 mM stock solutions in DMSO. 100 microliters/well of these dilutions were added to the 100 microliters of media currently on the cell plates. Medium containing 0.6% DMSO was added to control wells. Compounds diluted in DMEM were added to all cell lines. The final concentration of DMSO in all wells was 0.3%. Cells were returned to the incubator (37° C., 10% CO2) for 3 days. Medium was then removed by aspiration. Cell biomass was estimated by staining cells with 90 microliters per well methylene blue (Sigma M9140, 0.5% in 1:1 ethanol:water), and incubation at rt for at least 30 minutes. Stain was removed, and the plates rinsed by immersion in deionized water and air-dried. To release stain from the cells 100 microliters of solubilization solution was added (1% N-lauroyl sarcosine, Sodium salt, Sigma L5125, in PBS), and plates were shaken gently for about 30 minutes. Optical density at 620 nm was measured on a microplate reader. Percent inhibition of cell growth was calculated relative to vehicle treated control wells. Concentration of compound that inhibits 50% of control cell growth (IC50) was interpolated using nonlinear regression (Levenberg-Marquardt) and the equation, y=Vmax*(1−(x/(K+x)))+Y2, where “K” was equal to the IC50. Method B: Celltiter Glo® Growth Inhibition Assays

ErbB2 or EGFR = biological target: T1, ErbB2 or EGFR; experiment: ErbB family substrate phosphorylation enzyme assay (HTRF), Method A or Method B; assay type: biochemical
T1 construct: enzymes purified from a baculovirus expression system; Reagent production was conducted essentially as described in Brignola, P. S., et al, (2002) J. Biol. Chem. 277(2): 1576-1585
Procedure: Compounds of the present invention were tested for EGFR, ErbB-2, and ErbB-4 protein tyrosine kinase inhibitory activity in substrate phosphorylation assays using enzymes purified from a baculovirus expression system. Reagent production was conducted essentially as described in Brignola, P. S., et al, (2002) J. Biol. Chem. 277(2): 1576-1585.
The method measures the ability of the isolated enzyme to catalyse the transfer of the gamma-phosphate from ATP onto the tyrosine residue of a biotinylated synthetic peptide referenced “Peptide C” in Brignola, P. S., et al, (2002) J. Biol. Chem. 277(2):1576-1585. The extent of tyrosine phosphorylation was measured using an anti-phosphotyrosine antibody, and quantified by homogenous time-resolved fluorescence (HTRF).
Reactions were performed in black 384-well polystyrene flat-bottom plates in a final volume of 20 ul. Assays were performed by adding 10 μl of each of the following solutions, substrate Mix and enzyme mix: The Substrate mix contained 100 mM 3-[N-morpholino]propanesulfonic acid (MOPS) (pH 7.5), 2 mM MnCl2, 20 μM ATP, 0.01% Tween-20, 0.1 mg/mL (BSA), 0.8 uM peptide substrate, and 1 mM dithiothreitol. The enzyme mix contained 100 mM MOPS (pH7.5); 0.01% Tween-20; 0.1 mg/mL BSA, and either 0.8 nM EGFR, 10 nM ErbB2, or 1 nM ErbB4
During the course of these studies, two separate methods have been used to measure the potency of compounds. In Method A, the substrate mix was added to the compound plates first, then the reaction was started by adding the enzyme mix. In Method B, the enzyme mix was added to the compound plates and the plates were incubated at 20° C. for 1 hour. The reactions were then started by adding the substrate mix.
After initiating the reaction with either method describe above, the reactions were allowed to proceed for 90 minutes at 20° C. The reactions were then terminated by the addition of 20 μl 100 mM EDTA to each well. 40 μl/well of HTRF detection mix were added to the assay plates. The final concentrations of the detection reagents were: 100 mM HEPES (pH7.5), 0.1 mg/mL BSA, 15 nM streptavidin-labeled allophycocyanin (PerkinElmer), and 1 nM europium-labeled anti-phosphotyrosine antibody (PerkinElmer). Assay plates were left unsealed and were counted in a Wallac Multilabel Counter 1420 (PerkinElmer).
Compounds under analysis were dissolved in Me2SO to 1.0 mM and serially diluted 1 to 3 with Me2SO through twelve dilutions. 1 μl of each concentration was transferred to the corresponding well of an assay plate. This creates a final compound concentration range from 0.00027 to 47.6 μM.
The data for dose responses were plotted as % Inhibition calculated with the data reduction formula 100*(1−(U1−C2)/(C1−C2)) versus concentration of compound where U is the unknown value, C1 is the average control value obtained for 4.76% DMSO, and C2 is the average control value obtained for 0.035 M EDTA. Data were fitted with a curve described by: y=((Vmax*x)/(K+x))+Y^2 where Vmax is the upper asymptote, Y2 is the Y intercept, and K is the IC50. The results for each compound were recorded as pIC50s, calculated as follows: pIC50=−Log 10(K)

[2] = Method A: substrate mix added first, reaction started with enzyme mix
[3] = Method B: enzyme mix pre-incubated with compound 1 hour at 20° C., started with substrate mix

Compound | IC50 [1] [nM] | Activity (Method): pIC50 class against ErbB2 or EGFR (ErbB2 or EGFR; [2]) | Activity (Method): pIC50 class against ErbB2 or EGFR (ErbB2 or EGFR; [3])
COc1cccc(C(=S)Nc2cccc(-c3nn4ccccc4c3-c3ccnc(Nc4ccc5c(c4)OCCO5)n3)c2)c1 [Example 9, N-(3-{3-[2-(2,3-Dihydro-benzo[1,4-]dioxin-6-ylamino)-pyrimidin-4-yl]-pyrazolo[1,5-a]pyridin-2-yl}-phenyl)-3-methoxy-thiobenzamide] | 100 to 1000 | ++ (A) (at least one pIC50 measurement greater than 6 against either ErbB2 or EGFR but no measurement greater than pIC50 of 7) | –
Cc1cccc(C(=O)Nc2cccc(-c3nn4ccccc4c3-c3ccnc(Nc4cccc(F)c4)n3)c2)c1Cl [Example 70, 2-Chloro-N-[3-(3-{2-[(3-fluorophenyl)amino]-4-pyrimidinyl}pyrazolo[1,5-a]pyridin-2-yl)phenyl]-3-methylbenzamide] | 100 to 1000 | – | ++ (B) (at least one pIC50 measurement greater than 6 against either ErbB2 or EGFR but no measurement greater than pIC50 of 7)
O=C(Nc1cccc(-c2nn3ccccc3c2-c2ccnc(Nc3ccc(Cl)c(C(F)(F)F)c3)n2)c1)c1c(F)cccc1F [Example 89] | 100 to 1000 | ++ (A) (at least one pIC50 measurement greater than 6 against either ErbB2 or EGFR but no measurement greater than pIC50 of 7) | –
Cn1cccc1C(=S)Nc1cccc(-c2nn3ccccc3c2-c2ccnc(Nc3ccc4c(c3)OCCO4)n2)c1 [Example 10, 1-Methyl-1H-pyrrole-2-carbothioic acid (3-{3-[2-(2,3-dihydro-benzo[1,4]dioxin-6-ylamino)-pyrimidin-4-yl]pyrazolo[1,5-a]pyridin-2-yl}-phenyl)-amide] | 100 to 1000 | ++ (A) (at least one pIC50 measurement greater than 6 against either ErbB2 or EGFR but no measurement greater than pIC50 of 7) | –
O=C(Nc1cccc(-c2nn3ccccc3c2-c2ccnc(Nc3cccc(-c4cnco4)c3)n2)c1)c1c(F)cccc1F [Example 35, 2,6-Difluoro-N-{3-[3-(2-{[3-(1,3-oxazol-5-yl)phenyl]amino}-4-pyrimidinyl)pyrazolo[1,5-a]pyridin-2-yl]phenyl}benzamide] | < 100 | – | +++ (B) (at least one pIC50 measurement of greater than 7 against either ErbB2 or EGFR)
Nc1cccc(C(=O)Nc2cccc(-c3nn4ccccc4c3-c3ccnc(Nc4ccccc4)n3)c2)c1 [Example 143, 3-Amino-N-(3-{3-[2-(phenylamino)-4-pyrimidinyl]pyrazolo[1,5-a]pyridin-2-yl}phenyl)benzamide] | 100 to 1000 | +++ (A) (at least one pIC50 measurement of greater than 7 against either ErbB2 or EGFR) | –
Cc1cc(Nc2nccc(-c3c(-c4cccc(NC(=O)c5c(F)cccc5F)c4)nn4ccccc34)n2)ccc1C#N [Example 95] | < 100 | – | +++ (B) (at least one pIC50 measurement of greater than 7 against either ErbB2 or EGFR)
O=C(Nc1cccc(-c2nn3ccccc3c2-c2ccnc(Nc3cccc(F)c3)n2)c1)c1ccccc1F [Example 12, 2-Fluoro-N-(3-{3-[2-(3-fluoro-phenylamino)-pyrimidin-4-yl]-pyrazolo[1,5-a]pyridin-2-yl}-phenyl)-benzamide] | < 100 | – | ++ (B) (at least one pIC50 measurement greater than 6 against either ErbB2 or EGFR but no measurement greater than pIC50 of 7)
O=C(Nc1cccc(-c2nn3ccccc3c2-c2ccnc(Nc3ccccc3)n2)c1)c1ccccn1 [Example 140] | 100 to 1000 | ++ (A) (at least one pIC50 measurement greater than 6 against either ErbB2 or EGFR but no measurement greater than pIC50 of 7) | –
CN(C)CCCc1ccc(Nc2nccc(-c3c(-c4cccc(NC(=O)c5c(F)cccc5F)c4)nn4ccccc34)n2)cc1 [Example 112, N-(3-{3-[2-({4-[3-(dimethylamino)propyl]phenyl}-amino)-4-pyrimidinyl]pyrazolo[1,5-a]pyridin-2-yl}phenyl)-2,6-difluorobenzamide] | < 100 | – | +++ (B) (at least one pIC50 measurement of greater than 7 against either ErbB2 or EGFR)
CC(=O)Nc1cccc(Nc2nccc(-c3c(-c4cccc(NC(=O)c5c(F)cccc5F)c4)nn4ccccc34)n2)c1 [Example 36, N-{3-[3-(2-{[3-(Acetylamino)phenyl]amino}-4-pyrimidinyl)pyrazolo[1,5-a]pyridin-2-yl]phenyl}-2,6-difluorobenzamide] | < 100 | +++ (A) (at least one pIC50 measurement of greater than 7 against either ErbB2 or EGFR) | –
O=C(Nc1cccc(-c2nn3ccccc3c2-c2ccnc(Nc3cccc(F)c3)n2)c1)c1ccccc1OC(F)(F)F [Example 68, N-[3-(3-{2-[(3-fluorophenyl)amino]-4-pyrimidinyl}-pyrazolo[1,5-a]pyridin-2-yl)phenyl]-2-[(trifluoromethyl)oxy]benzamide] | 100 to 1000 | – | ++ (B) (at least one pIC50 measurement greater than 6 against either ErbB2 or EGFR but no measurement greater than pIC50 of 7)
O=C(Nc1cccc(-c2nn3ccccc3c2-c2ccnc(Nc3ccc(Nc4ccccc4)cc3)n2)c1)c1c(F)cccc1F [Example 96] | 100 to 1000 | ++ (A) (at least one pIC50 measurement greater than 6 against either ErbB2 or EGFR but no measurement greater than pIC50 of 7) | –
O=C(Nc1cccc(-c2nn3ccccc3c2-c2ccnc(Nc3cccc(F)c3)n2)c1)c1ccccc1C(F)(F)F [Example 16, N-(3-{3-[2-(3-Fluoro-phenylamino)-pyrimidin-4-yl]-pyrazolo[1,5-a]pyridin-2-yl}-phenyl)-2-trifluoromethyl-benzamide] | < 100 | – | +++ (B) (at least one pIC50 measurement of greater than 7 against either ErbB2 or EGFR)
COc1ccccc1C(=O)Nc1cccc(-c2nn3ccccc3c2-c2ccnc(Nc3cccc(F)c3)n2)c1 [Example 69, N-[3-(3-{2-[(3-fluorophenyl)amino]-4-pyrimidinyl}pyrazolo[1,5-a]pyridin-2-yl)phenyl]-2-(methyloxy)benzamide] | 100 to 1000 | – | +++ (B) (at least one pIC50 measurement of greater than 7 against either ErbB2 or EGFR)
